Experimental data taken from PubChem BioAssay AID330 (DTP/NCI, 2004).
“And” between values parts separate entries of the source, which are not always exact repeats. Identical values can stand only once. Toxic doses and inconclusive results are not listed. The calls were made as follows: active = survival T/C of 150% or more; inactive = T/C below 125% in these data. Square brackets hold non-standard residues; d marks the D form. Peptide text beside a SMILES is read from it. * marks the point of attachment. ξ: configuration not given here. Cbz = O=C(OCc1ccccc1)*; ξL = CC(C)CC(N)C(=O)O; OBn = c1ccc(CO*)cc1

Test system: P388 leukemia ip, CD2F1 mice, survival T/C
Assay: NCI In Vivo Anticancer Drug Screen. Data for tumor model P388 Leukemia (intraperitoneal) in CD2F1 (CDF1) mice
Details: endpoint: median survival time, higher = longer survival
Outline: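 Mice carrying the transplanted tumor received test compound or vehicle. Survival was recorded in each group, and the value is the treated-group measurement divided by that of the vehicle-treated control group.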

[1] = dose: 100.0 mg/kg/injection, schedule: Q01DX001 (ip), vehicle: saline with Tween-80
[2] = dose: 200.0 mg/kg/injection, schedule: Q01DX001 (ip), vehicle: saline with Tween-80
[3] = dose: 50.0 mg/kg/injection, schedule: Q01DX005 (ip), vehicle: Klucel (hydroxypropylcellulose) (HPC)
[4] = dose: 100.0 mg/kg/injection, schedule: Q01DX005 (ip), vehicle: Klucel (hydroxypropylcellulose) (HPC)
[5] = dose: 200.0 mg/kg/injection, schedule: Q01DX005 (ip), vehicle: Klucel (hydroxypropylcellulose) (HPC)
[6] = dose: 60.0 mg/kg/injection, schedule: Q01DX005 (ip), vehicle: saline with Tween-80
[7] = dose: 240.0 mg/kg/injection, schedule: Q01DX005 (ip), vehicle: saline with Tween-80
[8] = dose: 100.0 mg/kg/injection, schedule: Q01DX005 (ip), vehicle: saline with Tween-80
[9] = dose: 200.0 mg/kg/injection, schedule: Q01DX005 (ip), vehicle: saline with Tween-80
[10] = dose: 50.0 mg/kg/injection, schedule: Q01DX009 (ip), vehicle: saline
[11] = dose: 50.0 mg/kg/injection, schedule: Q01DX005 (ip), vehicle: saline with Tween-80
[12] = dose: 100.0 mg/kg/injection, schedule: Q04DX003 (ip), vehicle: saline with Tween-80
[13] = dose: 200.0 mg/kg/injection, schedule: Q04DX003 (ip), vehicle: saline with Tween-80
[14] = dose: 12.5 mg/kg/injection, schedule: Q01DX009 (ip), vehicle: saline
[15] = dose: 25.0 mg/kg/injection, schedule: Q01DX009 (ip), vehicle: saline
[16] = dose: 50.0 mg/kg/injection, schedule: Q01DX009 (ip), vehicle: saline with Tween-80
[17] = dose: 100.0 mg/kg/injection, schedule: Q01DX009 (ip), vehicle: saline with Tween-80

Measured: T/C

CCOC(=O)C(C)(C)CN1COCC1(C)C
inactive: dose: 50.0 mg/kg/injection, schedule: Q01DX001 (ip), vehicle: saline with Tween-80 104 % of control | [1] 104 % of control | [2] 118 % of control

N#CC1CC(=O)c2ccccc2C1=O (centres undefined)
inactive: [3] 102 % of control | [4] 104 % of control | [5] 108 % of control

Cc1cc(N2C(=O)CCSC2=S)ccc1Br
inactive: dose: 50.0 mg/kg/injection, schedule: Q01DX009 (ip), vehicle: suspension in saline 87 % of control | dose: 100.0 mg/kg/injection, schedule: Q01DX009 (ip), vehicle: suspension in saline 104 % of control | dose: 200.0 mg/kg/injection, schedule: Q01DX009 (ip), vehicle: suspension in saline 116 % of control

C=C(Cl)C(=NC(C)(C)C)Nc1ccc(C(=O)OCC)cc1
inactive: [3] 103 % of control | [4] 100 % of control | [5] 118 % of control

CCN(CC)CCOc1ccc(N=Nc2ccc(N)nc2N)cc1
inactive: [6] 102 % of control | dose: 120.0 mg/kg/injection, schedule: Q01DX005 (ip), vehicle: saline with Tween-80 93 % of control | [7] 101 % of control

COc1cc2ccncc2cc1O
inactive: dose: 3.13 mg/kg/injection, schedule: Q01DX009 (ip), vehicle: water 91 % of control | dose: 6.25 mg/kg/injection, schedule: Q01DX009 (ip), vehicle: water 95 % of control | dose: 12.5 mg/kg/injection, schedule: Q01DX009 (ip), vehicle: water 100 % of control | dose: 25.0 mg/kg/injection, schedule: Q01DX009 (ip), vehicle: water 95 % of control | dose: 50.0 mg/kg/injection, schedule: Q01DX009 (ip), vehicle: water 103 % of control

[Mn+2].[O-]c1cc(Br)ccc1/C=N/Nc1ccccn1.[O-]c1cc(Br)ccc1/C=N/Nc1ccccn1
inactive: [8] 87 % of control | [9] 91 % of control | dose: 400.0 mg/kg/injection, schedule: Q01DX005 (ip), vehicle: saline with Tween-80 100 % of control

C[n+]1ccn(Cc2ccc([N+](=O)[O-])cc2)c1
inactive: [10] 115 % of control | dose: 100.0 mg/kg/injection, schedule: Q01DX009 (ip), vehicle: saline 102 % of control

CN1C(=O)CCC1(O)C1SCCCS1 (centres undefined)
inactive: dose: 50.0 mg/kg/injection, schedule: Q01DX005 (ip), vehicle: saline 102 % of control | dose: 100.0 mg/kg/injection, schedule: Q01DX005 (ip), vehicle: saline 100 % of control | dose: 200.0 mg/kg/injection, schedule: Q01DX005 (ip), vehicle: saline 102 % of control

COc1cc2cc(-c3ccc(OC(C)C)c(OC)c3)[n+](C)cc2cc1OC
inactive: [1] 100 % of control | [2] 94 % of control

CC1(C)C(=NOCc2ccccc2)C(C)(C)C1=NOCc1ccccc1
inactive: [11] 91 % of control | [8] 87 % of control | [9] 86 % of control

CC(C)CC(NC(=O)OCc1ccccc1)C(=O)NCC(=O)NCC(=O)OCc1ccccc1 (stereo not drawn) (Cbz-[ξL]-Gly-Gly-OBn)
inactive: [11] 105 % of control | [8] 105 % of control | [9] 102 % of control

Cc1ccc(-n2c(N)cc(=O)[nH]c2=S)nc1
inactive: dose: 56.25 mg/kg/injection, schedule: Q01DX001 (ip), vehicle: saline with Tween-80 104 % of control | dose: 112.5 mg/kg/injection, schedule: Q01DX001 (ip), vehicle: saline with Tween-80 100 % of control | dose: 225.0 mg/kg/injection, schedule: Q01DX001 (ip), vehicle: saline with Tween-80 90 % of control

Cn1c(=O)c2[nH]c(C3COCCO3)nc2n(C)c1=O (centres undefined)
inactive: [6] 91 % of control | [7] 87 % of control

C=CC1CC(NC(=O)c2ccccc2)C(=O)O1 (centres undefined)
inactive: [11] 101 % of control | [8] 104 % of control | [9] 99 % of control

c1ccc(-c2[nH]nc3nccnc23)cc1
inactive: [3] 99 % of control | [4] 98 % of control | [5] 98 % of control

Nc1nc(/C=C\c2ccccc2)cc(-c2cc(/C=C\c3ccccc3)nc(N)n2)n1
inactive: dose: 30.0 mg/kg/injection, schedule: Q01DX005 (ip), vehicle: Klucel (hydroxypropylcellulose) (HPC) 97 % of control | dose: 60.0 mg/kg/injection, schedule: Q01DX005 (ip), vehicle: Klucel (hydroxypropylcellulose) (HPC) 90 % of control and 94 % of control | dose: 120.0 mg/kg/injection, schedule: Q01DX005 (ip), vehicle: Klucel (hydroxypropylcellulose) (HPC) 97 % of control | dose: 240.0 mg/kg/injection, schedule: Q01DX005 (ip), vehicle: Klucel (hydroxypropylcellulose) (HPC) 95 % of control

c1ccc2c(c1)CC/C2=N\OCC1CO1 (centres undefined)
inactive: dose: 100.0 mg/kg/injection, schedule: Q04DX002 (ip), vehicle: saline with Tween-80 102 % of control | dose: 200.0 mg/kg/injection, schedule: Q04DX002 (ip), vehicle: saline with Tween-80 104 % of control | dose: 400.0 mg/kg/injection, schedule: Q04DX002 (ip), vehicle: saline with Tween-80 106 % of control

O=c1[nH]cnc2cc(N3CCCCC3)c([N+](=O)[O-])cc12
inactive: [12] 102 % of control | [13] 94 % of control | dose: 400.0 mg/kg/injection, schedule: Q04DX003 (ip), vehicle: saline with Tween-80 94 % of control

Cc1cc(Br)c(OC(=O)Nc2cccc(Cl)c2Cl)cc1C
inactive: [14] 88 % of control | [15] 99 % of control | [16] 88 % of control | [10] 119 % of control | [17] 114 % of control

CSC(=C(C#N)C#N)N1CC1
inactive: dose: 12.5 mg/kg/injection, schedule: Q01DX001 (ip), vehicle: DMSO 103 % of control | dose: 25.0 mg/kg/injection, schedule: Q01DX001 (ip), vehicle: DMSO 97 % of control | dose: 50.0 mg/kg/injection, schedule: Q01DX001 (ip), vehicle: DMSO 96 % of control

O=C(O)C(Cc1cn(Cc2ccccc2)cn1)NCc1ccccc1 (centres undefined)
inactive: [3] 92 % of control | [4] 104 % of control | [5] 95 % of control

Nc1nc(Cl)c2[nH]cnc2n1
inactive: [16] 108 % of control | dose: 50.0 mg/kg/injection, schedule: Q04DX003 (ip), vehicle: saline with Tween-80 95 % of control | [17] 99 % of control | [12] 100 % of control | [13] 100 % of control

Oc1ccccc1O
inactive: dose: 3.12 mg/kg/injection, schedule: Q01DX009 (ip), vehicle: saline 112 % of control | dose: 6.25 mg/kg/injection, schedule: Q01DX009 (ip), vehicle: saline 104 % of control | [14] 105 % of control | [15] 105 % of control | [10] 105 % of control and 106 % of control and 107 % of control

CC(=O)c1cc2c(cc1Br)OCO2
inactive: dose: 100.0 mg/kg/injection, schedule: Q01DX001 (ip), vehicle: Klucel (hydroxypropylcellulose) (HPC) 100 % of control | dose: 200.0 mg/kg/injection, schedule: Q01DX001 (ip), vehicle: Klucel (hydroxypropylcellulose) (HPC) 102 % of control | dose: 400.0 mg/kg/injection, schedule: Q01DX001 (ip), vehicle: Klucel (hydroxypropylcellulose) (HPC) 108 % of control

Oc1ccc(C2c3ccccc3Oc3ccccc32)cc1
inactive: [16] 101 % of control | [17] 111 % of control | dose: 200.0 mg/kg/injection, schedule: Q01DX009 (ip), vehicle: saline with Tween-80 118 % of control
